Test results taken from patent US4230711A (priority 1979, dated 1980).

Tests used:
fungi = conditions: cited from earlier work
Septoria apii = format: in vivo; conditions: @ 250 ppm; celery (Utah) plants; approximately 14 days; relative to untreated check plants
[1] = test system: Alternaria solani conidia; conditions: in vivo
Erysiphe polygoni = conditions: in vivo
[2] = test system: Phytophthora infestans conidia; format: in vivo; conditions: @ 250 ppm; tomato (Bonny Best) seedlings sprayed, inoculated one day later; approximately 7 days; relative to untreated check plants

## O=C1c2ccccc2C(=O)N1SC(Cl)(Cl)Cl [N-(trichloromethylthio)phthalimide]
fungi
  fungicidal activity: having fungicidal activity

## CC1(C)C(=O)NC(=O)c2ccccc21 [Compound 3, 4,4-dimethyl homophthalimide]
Septoria apii
  % Control, Celery Late Blight: 0%
[1]
  % Control, Tomato Early Blight: 0%
Erysiphe polygoni
  % Control, Bean Powdery Mildew: 0%
[2]
  % Control, Tomato Late Blight: 0%

## CC1(C)C(=O)N(SC(Cl)(Cl)Cl)C(=O)c2ccccc21 [Compound 1, N-(trichloromethylthio)-4,4-dimethyl homophthalimide]
Septoria apii
  % Control, Celery Late Blight: 50%
[1]
  % Control, Tomato Early Blight: 33%
Erysiphe polygoni
  % Control, Bean Powdery Mildew: 96%
[2]
  % Control, Tomato Late Blight: 95%
